In PubChem BioAssay (NCI):
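Cells were grown in 96-well plates and exposed to each compound for 48 hours at five concentrations; endpoints were interpolated linearly between bracketing concentrations, or set to the highest concentration if not reached. Definition used: TGI = concentration required for complete inhibition of growth.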

Legend:
Assay in all cases: growth of human tumour cells (NCI), 48 h
[1] = test system: HCC-2998 colon
[2] = test system: SR leukemia
[3] = test system: SW-620 colon
[4] = test system: HOP-62 NSCLC
[5] = test system: NCI-H460 lung
[6] = test system: SK-MEL-28 melanoma
[7] = test system: KM12 colon
[8] = test system: UACC-257 melanoma
[9] = test system: SF-268 CNS
[10] = test system: OVCAR-8 ovarian
[11] = test system: MALME-3M melanoma
[12] = test system: OVCAR-4 ovarian
[13] = test system: SK-MEL-2 melanoma
[14] = test system: HL-60(TB) leukemia
[15] = test system: SF-295 CNS
[16] = test system: LOX IMVI melanoma
[17] = test system: OVCAR-5 ovarian
[18] = test system: A549 NSCLC
[19] = test system: HOP-92 NSCLC

Compound	TGI [1]	TGI [2]	TGI [3]	TGI [4]	TGI [5]	TGI [6]	TGI [7]	TGI [8]	TGI [9]	TGI [10]	TGI [11]	TGI [12]	TGI [13]	TGI [14]	TGI [15]	TGI [16]	TGI [17]	TGI [18]	TGI [19]
COC(=O)C(CCC1(C)OCCO1)C(C)=O (centres undefined)	> 100 µM	> 100 µM	> 100 µM	> 100 µM	> 100 µM	> 100 µM	> 100 µM	> 100 µM	> 100 µM	> 100 µM	> 100 µM	> 100 µM	> 100 µM	> 100 µM	> 100 µM	> 100 µM	> 100 µM	> 100 µM	–
COC1=C(C)C(=O)C2C(C1=O)C(c1ccc(OC)c(OC)c1)[C@H]2C (some centres undefined)	> 100 µM	> 100 µM	> 100 µM	> 100 µM	> 100 µM	> 100 µM	> 100 µM	–	> 100 µM	> 100 µM	> 100 µM	> 100 µM	> 100 µM	> 100 µM	> 100 µM	> 100 µM	> 100 µM	> 100 µM	> 100 µM
CN(C)S(=O)(=O)n1ccnc1	> 100 µM	–	> 100 µM	> 100 µM	> 100 µM	> 100 µM	> 100 µM	> 100 µM	> 100 µM	–	> 100 µM	> 100 µM	> 100 µM	–	> 100 µM	> 100 µM	> 100 µM	> 100 µM	> 100 µM
Cc1cc(=O)cc2sc3cc(Cl)ccc3nc1-2	24.6 µM	10.3 µM	29.8 µM	29.7 µM	35.4 µM	69.2 µM	24.5 µM	69.9 µM	79.5 µM	44.6 µM	39.7 µM	> 85.4 µM	23.5 µM	26.2 µM	26.6 µM	24.4 µM	43.7 µM	17.8 µM	57.7 µM
CCOC(=O)[C@H](Cc1ccccc1)NC(=O)c1nc[nH]c1[N+](=O)[O-]	> 100 µM	> 100 µM	> 100 µM	> 100 µM	> 100 µM	> 100 µM	> 100 µM	> 100 µM	> 100 µM	> 100 µM	> 100 µM	> 100 µM	> 100 µM	> 100 µM	> 100 µM	> 100 µM	–	> 100 µM	–
NS(=O)(=O)c1cc(S(N)(=O)=O)c(NC(=O)Nc2ccc(Cl)c(Cl)c2)c(Cl)c1Cl	> 100 µM	> 100 µM	> 100 µM	–	> 100 µM	> 100 µM	> 100 µM	> 100 µM	> 100 µM	> 100 µM	–	> 100 µM	> 100 µM	–	> 100 µM	> 100 µM	> 100 µM	> 100 µM	> 100 µM
